Test systems include HCT-15; RPMI-8226; EKVX; U-251; TK-10; COLO 205; OVCAR-5; SF-295; NCI-H522; T47D; UO-31; DU-145; SF-539; PC-3; Hs-578T; SK-OV-3; 786-0; MCF7; SNB-75.
Experiment in all cases: NCI-60 cell line screen, 48 h

Each structure is given as a SMILES string.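 Protocol summary: plate cells (96-well), add compound at 5 concentrations, incubate 48 h, interpolate endpoints linearly. GI50 = concentration required for 50% inhibition of growth.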 The source made the active and inactive calls. Rule as the data show it: active = GI50 up to about 1.1 µM and inactive = higher.

On to `O=C1CCCC2C3CC(CN12)C1CCCCN1C3.[O-][Cl+3]([O-])([O-])O` (stereo not given), for which the GI50 in the assay on HCT-15 was greater than 100 µM; in the assay on RPMI-8226, > 100 µM (inactive); in the assay on EKVX, > 100 µM (inactive); in the assay with U-251, > 100 µM (inactive); in the assay with TK-10 it was > 100 µM (inactive); with COLO 205, > 100 µM (inactive). Further, the GI50 in the assay on OVCAR-5, in the assay with SF-295, in the assay with NCI-H522, with T47D, in the assay on UO-31 and in the assay on DU-145 was > 100 µM (inactive) in each case. Further, the GI50 with SF-539, in the assay with PC-3, in the assay with Hs-578T, with SK-OV-3, in the assay on 786-0 and in the assay on MCF7 was > 100 µM (inactive) throughout.

In the case of `COC1C(N(C)C)=C(c2ccccc2)C(=O)N2CCc3ccccc3C12` (stereo not given), the GI50 is greater than 100 µM with HCT-15; > 100 µM (inactive) in the assay with EKVX; > 100 µM (inactive) in the assay on U-251; > 100 µM (inactive) in the assay on TK-10; > 100 µM (inactive) in the assay with COLO 205; > 100 µM (inactive) in the assay on OVCAR-5. In addition, the GI50 in the assay on SF-295, in the assay with SNB-75, with NCI-H522, with T47D, in the assay on UO-31 and in the assay with DU-145 was > 100 µM (inactive) throughout. For the same molecule, the GI50 in the assay with SF-539, with PC-3, in the assay on Hs-578T, with SK-OV-3, in the assay with 786-0 and in the assay on MCF7 was > 100 µM (inactive) each time.

`c1ccc(/C(=N/Nc2nc3ccccc3s2)C2CCCCC2)nc1`: the GI50 in the assay on HCT-15 is 2.77 µM; in the assay on RPMI-8226, 3.94 µM (inactive); in the assay on EKVX, 11.9 µM (inactive); in the assay on U-251, 11.3 µM (inactive); in the assay on TK-10, 2.47 µM (inactive); in the assay on COLO 205 it was 1.57 µM (inactive). Moreover, the GI50 is 3.26 µM (inactive) in the assay on OVCAR-5; 15.8 µM (inactive) with SF-295; 2.76 µM (inactive) in the assay on NCI-H522; 0.299 µM (active) with T47D; 3.04 µM (inactive) in the assay on UO-31; 12.6 µM (inactive) in the assay with DU-145. Besides, the GI50 in the assay with SF-539 is 13.8 µM (inactive); in the assay with PC-3 it was 6.11 µM (inactive); in the assay with Hs-578T, 19.6 µM (inactive); in the assay on SK-OV-3 it was 4.67 µM (inactive); in the assay on 786-0, 7.29 µM (inactive); in the assay with MCF7 it was 1.23 µM (inactive).

On to `C=C1C(=O)O[C@H]2C[C@@H]1C(=O)CC(C)CCCC(C)=CCC[C@@]2(C)O` (stereo not given in full), for which the GI50 with HCT-15 was greater than 25 µM; with RPMI-8226, > 25 µM (inactive); with EKVX it was > 25 µM (inactive); with U-251, > 25 µM (inactive); with TK-10, > 25 µM (inactive); in the assay on COLO 205, > 25 µM (inactive). Also, the GI50 in the assay with OVCAR-5, in the assay with SF-295, in the assay with NCI-H522, in the assay with T47D, in the assay with UO-31 and in the assay on DU-145 was > 25 µM (inactive) throughout. In addition, the GI50 in the assay with SF-539, in the assay on PC-3, with Hs-578T, with SK-OV-3, in the assay on 786-0 and in the assay with MCF7 was > 25 µM (inactive) in each case.

As for `CC1=C2C(=O)NN=C2CCN1c1ccc(Br)cc1`, the GI50 in the assay with HCT-15 was 93.5 µM; with EKVX it was > 100 µM (inactive); with U-251 it was > 100 µM (inactive); with TK-10, > 100 µM (inactive); in the assay on COLO 205, > 100 µM (inactive); with OVCAR-5, > 100 µM (inactive). For the same molecule, the GI50 in the assay with SF-295 was > 100 µM (inactive); in the assay with SNB-75, > 100 µM (inactive); in the assay with NCI-H522, > 100 µM (inactive); in the assay with T47D, 70.3 µM (inactive); in the assay on UO-31, 54.3 µM (inactive); with DU-145, > 100 µM (inactive). Moreover, the GI50 with SF-539, with PC-3, with Hs-578T, in the assay with SK-OV-3, with 786-0 and in the assay with MCF7 was > 100 µM (inactive) each time.

Regarding `C=C1N(C=O)C(C)(C)N(O)C1(C)C`, the GI50 in the assay with HCT-15 was greater than 100 µM; in the assay with RPMI-8226 it was > 100 µM (inactive); with EKVX, > 100 µM (inactive); with U-251, > 100 µM (inactive); in the assay on TK-10 it was > 100 µM (inactive); with COLO 205, > 100 µM (inactive). Moreover, the GI50 with OVCAR-5, with SF-295, in the assay on SNB-75, in the assay with T47D, with UO-31 and in the assay with DU-145 was > 100 µM (inactive) each time. The GI50 with SF-539, in the assay on PC-3, in the assay on Hs-578T, in the assay on SK-OV-3, with 786-0 and in the assay with MCF7 was > 100 µM (inactive) throughout.

Consider `CNC(=S)N(C1CCCCC1)C1CCCCC1`, for which the GI50 is greater than 100 µM with HCT-15; 35.7 µM (inactive) with RPMI-8226; 34.8 µM (inactive) with EKVX; > 100 µM (inactive) in the assay with U-251; > 100 µM (inactive) in the assay on TK-10; 66.1 µM (inactive) in the assay with COLO 205. Besides, the GI50 is > 100 µM (inactive) in the assay on OVCAR-5; 61.2 µM (inactive) in the assay with SF-295; 65.3 µM (inactive) with SNB-75; 44 µM (inactive) in the assay on T47D; 85.5 µM (inactive) in the assay with UO-31; > 100 µM (inactive) in the assay with DU-145. Moreover, the GI50 in the assay on SF-539 is > 100 µM (inactive); in the assay on PC-3, 35.1 µM (inactive); with Hs-578T it was 26.3 µM (inactive); in the assay on SK-OV-3, > 100 µM (inactive); in the assay on 786-0, > 100 µM (inactive); in the assay on MCF7 it was 54.8 µM (inactive).

Take `COc1cccc(C2c3cc4c(cc3OC(O)C2C)OCO4)c1OC` (stereo not given): the GI50 in the assay with HCT-15 was 2.1 µM; in the assay with RPMI-8226 it was 2.13 µM (inactive); in the assay with EKVX, 20.1 µM (inactive); in the assay on U-251, 3.27 µM (inactive); in the assay on TK-10 it was 7.4 µM (inactive); in the assay with COLO 205, 6.11 µM (inactive). For the same molecule, the GI50 in the assay on OVCAR-5 was 16.2 µM (inactive); in the assay with SF-295 it was 3.26 µM (inactive); in the assay on SNB-75, 2.36 µM (inactive); in the assay on T47D it was 3.36 µM (inactive); in the assay on DU-145 it was 2.98 µM (inactive); with SF-539 it was 11.1 µM (inactive). The GI50 in the assay on PC-3 was 4.49 µM (inactive); with Hs-578T it was 4.46 µM (inactive); with 786-0 it was 3.29 µM (inactive); in the assay with MCF7, 5.28 µM (inactive).

For the molecule `COCN1C(=O)[C@@H]2C[C@@H](OC/C=C/CBr)CN2C(=O)c2ccccc21`, the GI50 is 17.9 µM with HCT-15; 23 µM (inactive) in the assay on EKVX; 14.5 µM (inactive) in the assay with U-251; 19.3 µM (inactive) in the assay with TK-10; 15.8 µM (inactive) in the assay with COLO 205; 20.1 µM (inactive) in the assay on OVCAR-5. In addition, the GI50 with SF-295 is 22.3 µM (inactive); in the assay with SNB-75, 10.7 µM (inactive); in the assay on NCI-H522, 5.68 µM (inactive); with T47D it was 19.5 µM (inactive); in the assay with UO-31, 18.9 µM (inactive); with DU-145, 19.4 µM (inactive). Moreover, the GI50 in the assay with SF-539 was 17.5 µM (inactive); in the assay with PC-3, 17.1 µM (inactive); in the assay on Hs-578T it was 26.5 µM (inactive); with SK-OV-3, 33.3 µM (inactive); in the assay with 786-0, 21.5 µM (inactive); in the assay with MCF7 it was 5.78 µM (inactive).

As for `COc1cccc2c1C(=O)c1c(O)c3c(c(O)c1C2=O)CC(O)(C(C)=O)CC3OC1OC(COC(C)=O)C(OC(C)=O)C(OC(C)=O)C1OC(C)=O` (stereo not given), the GI50 in the assay on HCT-15 is 47.2 µM; in the assay with EKVX it was 0.116 µM (active); with U-251, 12.9 µM (inactive); in the assay with TK-10, 22.9 µM (inactive); with COLO 205, 79.4 µM (inactive); in the assay with OVCAR-5, 24.1 µM (inactive). Besides, the GI50 with SF-295 is 17.2 µM (inactive); in the assay with SNB-75, 9.29 µM (inactive); in the assay with NCI-H522 it was > 100 µM (inactive); with T47D, 38.8 µM (inactive); with UO-31 it was > 100 µM (inactive); in the assay on DU-145 it was 26.9 µM (inactive). Further, the GI50 in the assay with SF-539 was 16.8 µM (inactive); in the assay on PC-3 it was > 100 µM (inactive); in the assay on Hs-578T, 14.5 µM (inactive); in the assay on SK-OV-3 it was 32.7 µM (inactive); with 786-0, 12.1 µM (inactive); with MCF7 it was 65.2 µM (inactive).

Regarding `O=C(/C=C(\N=P(c1ccccc1)(c1ccccc1)c1ccccc1)C(F)(F)C(F)(F)C(F)(F)C(F)(F)C(F)(F)C(F)(F)C(F)(F)F)c1ccccc1`, the GI50 was greater than 100 µM with HCT-15; > 100 µM (inactive) with RPMI-8226; > 100 µM (inactive) in the assay with U-251; > 100 µM (inactive) in the assay with TK-10; > 100 µM (inactive) in the assay with COLO 205; > 100 µM (inactive) in the assay on OVCAR-5. Also, the GI50 in the assay on SF-295, in the assay with SNB-75, in the assay with T47D, in the assay on UO-31, in the assay with DU-145 and with SF-539 was > 100 µM (inactive) throughout. Also, the GI50 in the assay on PC-3, in the assay with Hs-578T, with SK-OV-3, with 786-0 and in the assay on MCF7 was > 100 µM (inactive) in each case.

The values are drawn from ChEMBL document CHEMBL1201862, “PubChem BioAssay data set” (2004).
